From PubChem BioAssay (NCI)
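Grown in 96-well plates, cells were treated for 48 hours with each compound at five concentrations. Insufficient inhibition: endpoint recorded as highest concentration tested. GI50 marks 50% less growth. Definition used: TGI = concentration required for complete inhibition of growth.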

Tests used:
Assay in all cases: inhibition of tumour cell growth, NCI panel, 48 h
[1] = test system: M14 melanoma
[2] = test system: HOP-62 NSCLC
[3] = test system: MDA-MB-435
[4] = test system: KM12 colon
[5] = test system: NCI-H23 lung
[6] = test system: BT-549 breast
[7] = test system: SK-MEL-2 melanoma
[8] = test system: HT29 colon
[9] = test system: DU-145 prostate
[10] = test system: UACC-62 melanoma

| SMILES | GI50 [1] | TGI [1] | GI50 [2] | TGI [2] | GI50 [3] | TGI [3] | GI50 [4] | TGI [4] | GI50 [5] | TGI [5] | GI50 [6] | TGI [6] | GI50 [7] | TGI [7] | GI50 [8] | TGI [8] | GI50 [9] | TGI [9] | GI50 [10] | TGI [10] |
| --- | --- | --- | --- | --- | --- | --- | --- | --- | --- | --- | --- | --- | --- | --- | --- | --- | --- | --- | --- | --- |
| NC(=NC1CCCCCC1)c1ccc(N2CCN(c3ccc(C(N)=NC4CCCCCC4)cc3)CC2)cc1 | 8.74 µM | 30.5 µM | 8.48 µM | 22.6 µM | 7.85 µM | 26.1 µM | 8.35 µM | 30.2 µM | 4.77 µM | 18.5 µM | 2.1 µM | 5.48 µM | 7.65 µM | 18.1 µM | 9.3 µM | > 50 µM | 7.59 µM | > 50 µM | 7.8 µM | 17.2 µM |
| CCc1oc2ccccc2c1C(=O)c1cc(Br)c(O)c(Br)c1 |  | 80.6 µM |  | 85.7 µM |  | > 100 µM |  | 55.1 µM |  | 54.8 µM |  | 71.4 µM |  | 45.3 µM |  | 74.7 µM |  | > 100 µM |  | 33.6 µM |
| O=c1[nH]nc2c3c(cccc13)NC(CN1Cc3ccccc3C1)=N2 | 4.08 µM | > 100 µM | 3.2 µM | > 100 µM | 4.39 µM | > 100 µM | 4.41 µM | > 100 µM | 4.41 µM | > 100 µM | 34.7 µM | > 100 µM | > 100 µM | > 100 µM | 3.45 µM | > 100 µM | 5 µM | > 100 µM | 4.44 µM | > 100 µM |
| Cc1cc(N/N=C/c2nc(-c3ccccc3)oc2C)c2cc(Cl)ccc2n1 | 1.83 µM | 3.54 µM | 1.85 µM | 3.66 µM | 1.78 µM | 3.26 µM |  |  | 1.7 µM | 3.61 µM | 14.9 µM | 29.3 µM | 18.7 µM | 38.7 µM | 1.82 µM | 3.59 µM | 2.15 µM | 4.49 µM | 1.7 µM | 3.36 µM |
| Cn1c(=O)c2[nH]c(COCc3nc4c([nH]3)c(=O)n(C)c(=O)n4C)nc2n(C)c1=O |  | > 100 µM |  | > 100 µM |  | > 100 µM |  | > 100 µM |  | > 100 µM |  | > 100 µM |  | > 100 µM |  | > 100 µM |  | > 100 µM |  | > 100 µM |
| CC(=O)Oc1cccc2c1C(=O)C(Br)(Br)CCC2 |  | 8.67 µM |  | 22 µM |  | 13.4 µM |  | 23.2 µM |  | 18.7 µM |  | 4.19 µM |  | 21.5 µM |  | 14 µM |  | 26.6 µM |  | 20.9 µM |
| O=[N+]([O-])c1cc(Br)cc2c1[nH]c1ccc(Br)cc12 | 14.6 µM | > 100 µM | 2.11 µM | 5 µM | 20.6 µM | > 100 µM | 13.3 µM | > 100 µM | 8.56 µM | > 100 µM | 18.7 µM | 58 µM | 6.22 µM | 41.5 µM | 4.03 µM | > 100 µM | 6.17 µM | 76.6 µM | 22.1 µM | > 100 µM |
| COc1cc(-c2cn(-c3ccc(Cl)cc3)c(=O)[nH]2)cc(OC)c1OC | > 100 µM | > 100 µM | > 100 µM | > 100 µM | > 100 µM | > 100 µM | > 100 µM | > 100 µM | > 100 µM | > 100 µM | > 100 µM | > 100 µM | > 100 µM | > 100 µM | > 100 µM | > 100 µM | > 100 µM | > 100 µM | > 100 µM | > 100 µM |
| c1ccc2[nH]c(-c3ccc(OCCCCCOc4ccc(-c5nc6ccccc6[nH]5)cc4)cc3)nc2c1 | 1.73 µM | 4.31 µM | 2.23 µM | 5.15 µM | 1.63 µM | 3.94 µM | 1.54 µM | 4.17 µM | 8.89 µM | 26 µM | 2.33 µM | 5.58 µM | 6.23 µM | 12.7 µM | 0.629 µM | 2.75 µM | 0.639 µM | 3.41 µM | 4.95 µM | 10.8 µM |
| Cc1nn2c(/C=C3/C(=O)Nc4ccc(Cl)cc43)c(-c3ccccc3)nc2s1 | 6.33 µM | 21.5 µM | 2.01 µM | 3.99 µM | 3.24 µM | 13.5 µM | 2.11 µM | 5.88 µM | 4.1 µM | > 100 µM | 3.11 µM | 14.3 µM | 4.04 µM | 18.4 µM | 4.03 µM | 13.9 µM | 2.69 µM | 7.2 µM | 3.8 µM | 18.5 µM |
| COc1ccc(/C=C(\C#N)c2cc(OC)c3c(c2)OCO3)cc1 |  |  | < 0.0125 µM | 24.1 µM | < 0.01 µM |  | < 0.01 µM | 1.66 µM | < 0.0143 µM | 24.3 µM | 0.0657 µM | 83.2 µM | < 0.017 µM | 2.81 µM | < 0.01 µM | 0.694 µM | 0.0256 µM | 0.186 µM | < 0.01 µM | > 100 µM |
| NC(=O)C1=C(c2ccccc2)c2ccccc2C1=O |  | 36.8 µM |  | 28.3 µM |  | 65.8 µM |  | 30.9 µM |  | 33.7 µM |  | 30.9 µM |  | 39.7 µM |  | 34.2 µM |  | 31.3 µM |  | 32.7 µM |
| Cc1ccc(NC2=C(Sc3ccc(Cl)cc3)C(=O)N(Cc3ccccc3)C2=O)cc1Cl | 3.88 µM | 17.5 µM | 3.14 µM | 10.4 µM | 22 µM | > 100 µM | 31.1 µM | > 100 µM | 13.3 µM | 32.8 µM | 10.4 µM | 24 µM | 13.2 µM | 33.3 µM | 10.4 µM | > 100 µM | 3.98 µM | 24.6 µM | 13.5 µM | 30.5 µM |
| CN(C)CC#Cc1cccc(C(=O)c2cnn(-c3ccc(F)cc3)c2N)c1 | > 25 µM | > 25 µM | > 25 µM | > 25 µM | 11.9 µM | > 25 µM | > 25 µM | > 25 µM | > 25 µM | > 25 µM | > 25 µM | > 25 µM | > 25 µM | > 25 µM | > 19.5 µM | > 25 µM | > 25 µM | > 25 µM | > 25 µM | > 25 µM |
